From US20160287589A1, “SUBSTITUTED-IMIDAZOPYRIDAZINES” (BAYER PHARMA AKTIENGESELLSCHAFT, priority 2013, published 2016)

Key:
MKNK1 [1] = target: T1, MKNK1 (Homo sapiens, UniProt Q9BUB5, T385D); test: MKNK1 kinase assay (MKNK1 TR-FRET assay); format: biochemical; settings: 10 μM ATP, 15 min preincubation
T1 construct: GST (N); purchased Carna Biosciences 02-145; host or cells: insect cells (baculovirus expression system)

MKNK1 [2] = target: T1, MKNK1; test: MKNK1 kinase high ATP assay (TR-FRET-based); format: biochemical; settings: 2 mM ATP, 15 min preincubation
Summary of the method: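 GST-tagged full-length human MKNK1 (aa 1-424, T344D) from insect cells, preincubated with compound 15 min at 22 °C. Reaction 30 min at 22 °C with 2 mM ATP and 0.06 μM biotinylated peptide in HEPES pH 7.5, Mg2+, DTT. Phosphopeptide detected by TR-FRET (665/622 ratio) with anti-pS6 (pSer236) antibody; normalised to no-inhibitor and no-enzyme controls.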

T1 sequence (Q9BUB5 1-424 isoform Q9BUB5-2 T344D): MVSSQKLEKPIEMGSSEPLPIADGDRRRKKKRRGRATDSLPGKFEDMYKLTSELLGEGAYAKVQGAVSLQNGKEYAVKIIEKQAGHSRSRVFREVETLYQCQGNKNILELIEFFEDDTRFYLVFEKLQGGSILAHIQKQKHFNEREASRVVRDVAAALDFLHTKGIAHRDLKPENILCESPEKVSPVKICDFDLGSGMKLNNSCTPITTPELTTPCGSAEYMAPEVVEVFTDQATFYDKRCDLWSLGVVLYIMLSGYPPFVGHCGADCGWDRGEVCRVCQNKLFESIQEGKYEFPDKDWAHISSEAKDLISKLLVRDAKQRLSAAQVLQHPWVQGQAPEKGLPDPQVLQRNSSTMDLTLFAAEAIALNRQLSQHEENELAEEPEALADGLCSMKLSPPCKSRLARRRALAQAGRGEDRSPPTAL

IC50 (MKNK1 [1]; Table 1a) [nM]	IC50 (MKNK1 [2]; Table 2a) [nM]	IC50 (MKNK1 [1]; Table 1c) [nM]	IC50 (MKNK1 [2]; Table 2c) [nM]	SMILES	other results
				C[C@@H]1CNCCN1c1cccc2oc(-c3cnc4ccc(OCCCS(C)(=O)=O)nn34)cc12 [II-45, 3-{4-[(2R)-2-methylpiperazin-1-yl]-1-benzofuran-2-yl}-6-[3-(methylsulfonyl)pro-poxy]imidazo[1,2-b]pyri-dazine]	IC50 (MKNK1 [1]; Table 1b): 5.7 nM; IC50 (MKNK1 [2]; Table 2b): 5.9 nM
3.5	10.2			COc1cccc2oc(-c3cnc4ccc(OCCN5CCNC5=O)nn34)cc12 [Example I-12, 1-(2-{[3-(4-methoxy-1-benzofuran-2-yl)imidazo[1,2-b]pyridazin-6-yl]oxy}ethyl)-imidazolidin-2-one]	
				COc1nccc2oc(-c3cnc4ccc(OC[C@H]5CCC(=O)N5)nn34)cc12 [IV-6, (5R)-5-({[3-(4-Methoxyfuro[3,2-c]pyridin-2-yl)imidazo[1,2-b]pyridazin-6-yl]-oxy}methyl)pyrrolidin-2-one]	IC50 (MKNK1 [1]; Table 1d): 4 nM; IC50 (MKNK1 [2]; Table 2d): 8 nM
				CC(C)(C)C(=O)N1CCC[C@H]1CCOc1ccc2ncc(-c3cc4cnccc4o3)n2n1 [IV-7, 1-[(2S)-2-(2-{[3-(Furo[3,2-c]pyridin-2-yl)imidazo[1,2-b]pyridazin-6-yl]-oxy}ethyl)pyrrolidin-1-yl]-2,2-dimethylpropan-1-one]	IC50 (MKNK1 [1]; Table 1d): 1 nM; IC50 (MKNK1 [2]; Table 2d): 4 nM
				C[C@H]1CN(c2cccc3oc(-c4cnc5ccc(OC[C@@H]6CCC(=O)N6)nn45)cc23)CCO1 [II-68, (5S)-5-{[(3-{4-[(2S)-2-methylmorpholin-4-yl]-1-benzofuran-2-yl}imidazo[1,2-b]pyridazin-6-yl)oxy]methyl}pyrrolidin-2-one]	IC50 (MKNK1 [1]; Table 1b): 23.2 nM; IC50 (MKNK1 [2]; Table 2b): 30.4 nM
1.2	1.9			CC(C)(C)C(=O)N1CCC[C@H]1CCOc1ccc2ncc(-c3cc4ccccc4o3)n2n1 [Example I-46, 1-[(2S)-2-(2-{[3-(1-Benzofuran-2-yl)imidazo[1,2-b]-pyridazin-6-yl]oxy}ethyl)pyrrolidin-1-yl]-2,2-dimethylpropan-1-one]	
		16.8	13.9	C[C@@H](N)COc1ccc2ncc(-c3cc4c(N5CCOC(C)(C)C5)nccc4o3)n2n1 [III-124, (2R)-1-({3-[4-(2,2-dimethylmorpholin-4-yl)furo[3,2-c]pyridin-2-yl]imidazo[1,2-b]pyridazin-6-yl}oxy)propan-2-amine]	
		0.4	0.1	CCN(CCOC)c1nccc2oc(-c3cnc4ccc(OC[C@H]5CCC(=O)N5)nn34)cc12 [III-69, (5R)-5-{[(3-{4-[Ethyl(2-methoxyethyl)amino]furo[3,2-c]pyridin-2-yl}imidazo[1,2-b]pyridazin-6-yl)oxy]methyl}pyrrolidin-2-one]	
15.1	56.2			CN(C)C(=O)COc1ccc2ncc(-c3cc4ccccc4o3)n2n1 [Example I-36, 2-{[3-(1-Benzofuran-2-yl)imidazo[1,2-b]pyridazin-6-yl]oxy}-N,N-dimethyl-acetamide]	
		3	1.7	CCN(CCOC)c1nccc2oc(-c3cnc4ccc(OC[C@@H]5CCCN5)nn34)cc12 [III-139, N-ethyl-N-(2-methoxyethyl)-2-{6-[(2S)-pyrrolidin-2-ylmeth-oxy]imidazo[1,2-b]pyridazin-3-yl}furo[3,2-c]pyridin-4-amine]	
4	3.8			O=C(C1CCCC1)N1CCC[C@H]1CCOc1ccc2ncc(-c3cc4ccccc4o3)n2n1 [Example I-56, [(2S)-2-(2-{[3-(1-Benzofuran-2-yl)imidazo[1,2-b]-pyridazin-6-yl]oxy}ethyl)pyrrolidin-1-yl](cyclopentyl)-methanone]	
		21.5	39.9	C[C@H](N)COc1ccc2ncc(-c3cc4c(N5CCO[C@H](C)C5)nccc4o3)n2n1 [III-117, (2S)-1-[(3-{4-[(2R)-2-methylmorpholin-4-yl]furo[3,2-c]pyridin-2-yl}imidazo[1,2-b]pyridazin-6-yl)oxy]propan-2-amine]	
		3.5	7.4	COCCN(C)c1nccc2oc(-c3cnc4ccc(O[C@H](C)CN)nn34)cc12 [III-34, 2-(6-{[(2R)-1-Aminopropan-2-yl]oxy}imidazo[1,2-b]pyridazin-3-yl)-N-(2-methoxyethyl)-N-methylfuro[3,2-c]pyridin-4-amine]	
		11.9	7	CC1(C)CN(c2nccc3oc(-c4cnc5ccc(OCCCS(C)(=O)=O)nn45)cc23)CCN1 [III-131, 3-[4-(3,3-dimethylpiperazin-1-yl)furo[3,2-c]pyridin-2-yl]-6-[3-(methylsulfonyl)propoxy] imidazo[1,2-b]pyridazine]	
		9.1	18.6	N[C@H]1C[C@H](Oc2ccc3ncc(-c4cc5c(N6CCNCC6)nccc5o4)n3n2)C1 [III-103, trans-3-({3-[4-(Piperazin-1-yl)furo[3,2-c]pyridin-2-yl]imidazo[1,2-b]pyridazin-6-yl}oxy)cyclobutanamine]	
3.4	9.2			CC(C)(C)CC(=O)N1CCC[C@H]1CCOc1ccc2ncc(-c3cc4ccccc4o3)n2n1 [Example I-6, 1-[(2S)-2-(2-{[3-(1-Benzofuran-2-yl)imidazo[1,2-b]pyridazin-6-yl]oxy}ethyl)-pyrrolidin-1-yl]-3,3-dimethylbutan-1-one]	
		4.8	5.2	C[C@@H]1COCCN1c1nccc2oc(-c3cnc4ccc(OC[C@@H]5CCC(=O)N5)nn34)cc12 [III-85, (5S)-5-{[(3-{4-[(3R)-3-Methylmorpholin-4-yl]furo[3,2-c]pyridin-2-yl}imidazo[1,2-b]pyridazin-6-yl)oxy]methyl}pyrrolidin-2-one]	
5.4	16.7			CCCCC(=O)NCCOc1ccc2ncc(-c3cc4ccccc4o3)n2n1 [Example I-74, N-(2-{[3-(1-Benzofuran-2-yl)imidazo[1,2-b]-pyridazin-6-yl]oxy}ethyl)pentanamide]	
				C[C@H](N)COc1ccc2ncc(-c3cc4c(N5CCO[C@@H](C)C5)cccc4o3)n2n1 [II-67, (2S)-1-[(3-{4-[(2S)-2-methylmorpholin-4-yl]-1-benzofuran-2-yl}imidazo[1,2-b]pyridazin-6-yl)oxy]propan-2-amine]	IC50 (MKNK1 [1]; Table 1b): 23.5 nM; IC50 (MKNK1 [2]; Table 2b): 56.3 nM
17.9	47.8			CC(=O)NC[C@H](Oc1ccc2ncc(-c3cc4ccccc4o3)n2n1)c1cccnc1 [Example I-35, N-[(2R)-2-{[3-(1-Benzofuran-2-yl)imidazo[1,2-b]pyridazin-6-yl]oxy}-2-(pyridin-3-yl)ethyl]acetamide]	
5.6	8.8			O=C1NC(COc2ccc3ncc(-c4cc5ccccc5o4)n3n2)CO1 (stereo not drawn) [Example I-4, 4-({[3-(1-Benzofuran-2-yl)imidazo[1,2-b]pyridazin-6-yl]oxy}methyl)-1,3-oxazolidin-2-one]	
				C[C@H]1CN(c2cccc3oc(-c4cnc5ccc(OC[C@H]6CCC(=O)N6)nn45)cc23)CCN1 [II-53, (5R)-5-{[(3-{4-[(3S)-3-methylpiperazin-1-yl]-1-benzofuran-2-yl}imidazo[1,2-b]pyridazin-6-yl)oxy]methyl}pyrrolidin-2-one]	IC50 (MKNK1 [1]; Table 1b): 1.1 nM; IC50 (MKNK1 [2]; Table 2b): 1.1 nM
4.7	20.8			CC(Oc1ccc2ncc(-c3cc4ccccc4o3)n2n1)C(N)=O (stereo not drawn) [Example I-25, 2-{[3-(1-Benzofuran-2-yl)imidazo[1,2-b]pyridazin-6-yl]oxy}propanamide]	
		1.8	3.7	COCCN(C)c1nccc2oc(-c3cnc4ccc(OCCCS(C)(=O)=O)nn34)cc12 [III-52, N-(2-Methoxyethyl)-N-methyl-2-{6-[3-(methylsulfonyl)propoxy]imidazo[1,2-b]pyridazin-3-yl}furo[3,2-c]pyridin-4-amine]	
		2	1	CC1(C)CN(c2nccc3oc(-c4cnc5ccc(OC[C@@H]6CCC(=O)N6)nn45)cc23)CCN1 [III-134, (5S)-5-[({3-[4-(3,3-dimethylpiperazin-1-yl)furo[3,2-c]pyridin-2-yl]imidazo[1,2-b]pyridazin-6-yl}oxy)methyl]pyrrolidin-2-one]	
				C[C@H](N)COc1ccc2ncc(-c3cc4c(N5CCOC[C@@H]5C)cccc4o3)n2n1 [II-31, (2S)-1-[(3-{4-[(3S)-3-methylmorpholin-4-yl]-1-benzofuran-2-yl}imidazo[1,2-b]pyridazin-6-yl)oxy]propan-2-amine]	IC50 (MKNK1 [1]; Table 1b): 24.2 nM; IC50 (MKNK1 [2]; Table 2b): 35.5 nM
				CCN(CCOC)c1cccc2oc(-c3cnc4ccc(OCCCS(C)(=O)=O)nn34)cc12 [II-23, N-Ethyl-N-(2-methoxyethyl)-2-{6-[3-(methylsulfonyl)propoxy]imidazo[1,2-b]-pyridazin-3-yl}-1-benzofuran-4-amine]	IC50 (MKNK1 [1]; Table 1b): 2 nM; IC50 (MKNK1 [2]; Table 2b): 1.9 nM
				CS(=O)(=O)CCCOc1ccc2ncc(-c3cc4c(N5CCN(c6ccccc6)CC5)cccc4o3)n2n1 [II-12, 6-[3-(Methylsulfonyl)propoxy]-3-[4-(4-phenylpiperazin-1-yl)-1-benzofuran-2-yl]-imidazo[1,2-b]pyridazine]	IC50 (MKNK1 [1]; Table 1b): 24 nM; IC50 (MKNK1 [2]; Table 2b): 67 nM

SMILES	IC50 (MKNK1 [1]; Table 1a) [nM]	IC50 (MKNK1 [2]; Table 2a) [nM]	IC50 (MKNK1 [1]; Table 1c) [nM]	IC50 (MKNK1 [2]; Table 2c) [nM]	other results
CN1CCC(N(C)c2nccc3oc(-c4cnc5ccc(OC[C@H]6CCC(=O)N6)nn45)cc23)CC1 [III-65, (5R)-5-{[(3-{4-[Methyl(1-methylpiperidin-4-yl)amino]furo[3,2-c]pyridin-2-yl}imidazo[1,2-b]pyridazin-6-yl)oxy]methyl}pyrrolidin-2-one]			11.6	19.9	
CCN(CCOC(C)(C)C)c1nccc2oc(-c3cnc4ccc(OC[C@@H]5COCCN5)nn34)cc12 [III-39, N-(2-tert-Butoxyethyl)-N-ethyl-2-{6-[(3S)-morpholin-3-ylmethoxy]imidazo-[1,2-b]pyridazin-3-yl}furo[3,2-c]pyridin-4-amine]			0.9	0.5	
